“Also recorded” adds a separate entry of the source. Read-outs that look alike come from different tables or passages of the source.
How the values were obtained:
asthmatic mice [1] = experiment: Airway resistance (Raw) response to methacholine in murine model of asthma (forced oscillation); type: in vivo, Balb/cJ mice
Experimental: Balb/cJ mice aged 6 weeks (Jackson Animal Laboratory, Bar Harbor, Me.) were housed under specific pathogen-free conditions and fed a chicken ovalbumin-free diet. The Animal Research Ethics Boards of both the University of Houston and the Baylor College of Medicine approved all experiments reported here. […] Mice were sensitized with subcutaneous injection of 25 μg of ovalbumin adsorbed to aluminum hydroxide on protocol days 2, 9, and 16. Subsequently, mice were given 50 μL of saline solution containing 25 μg of ovalbumin intranasally, on a daily basis, from protocol days 23 through 27. A group of ovalbumin-sensitized saline-challenged mice serves as controls for systemic sensitization and respiratory challenges with ovalbumin. Prior to intranasal administrations, mice were sedated with halothane vapor.
To examine the effects of duration of β-adrenergic ligand therapy on the phenotype of the murine model of asthma, the experimental drugs were administered either acutely or chronically to different groups of asthmatic mice.
Asthmatic mice on acute therapy were given a single intravenous bolus infusion of either β-adrenergic drug or normal saline on protocol day 28, 15 minutes before airway responsiveness to methacholine was determined. […] […] […] These concentrations were chosen based on those producing therapeutic effects in mice in previously published studies. The non-asthmatic mice were fed normal chow.
On protocol day 28, mice were anesthetized, tracheotomized, and connected to a computer-controlled small animal ventilator (Flexivent, Scientific Respiratory Equipment, Inc., Montreal, Canada). Airway resistance (Raw) was measured using the forced oscillation technique. The cellular composition of bronchoalveolar lavage fluid (BALF) was also determined.
To induce airway constriction, a solution containing 150 μg/mL of acetyl-α-methylcholine chloride (methacholine) (Sigma Chemical, St. Louis, Mo.) was infused intravenously at constant rates using a syringe infusion pump (Raze Scientific Instruments, Stanford, Conn.). […] Each methacholine dose was administered for 3 to 5 minutes, during which data were sampled at 1-minute intervals and then averaged.
The complex input impedance of the respiratory system was computed and the value of the real part of respiratory system impedance at 19.75 Hz was taken to reflect the magnitude of airway resistance (Raw). To examine the degree of airway responsiveness of each animal, the values for Raw as a function of methacholine doses were plotted. The largest value for Raw achieved in response to methacholine stimulation was referred to as Rawpeak. For mice that achieved a plateau in the methacholine dose-Raw response curve, the ED50 was calculated by linear interpolation using the GraphPad Prism4 (GraphPad Software, Inc.). […] The Bonferroni test was used to examine the statistical differences between experimental groups. The effects of acute drug treatments on baseline respiratory system mechanics were assessed using a two-tailed paired t-test. A value of P<0.05 was considered significant.
For these experiments, salbutamol was used for chronic administration at 0.5 mg/kg/day with a minipump and for acute administration at 0.15 mg/kg by i.v. bolus 15 minutes prior to challenge. Alprenolol was used at a high dose of 7200 ppm in chow or at a low dose of 720 ppm in chow. Carvedilol was used at a high dose of 2400 ppm in chow or at a low dose of 720 ppm in chow.

asthmatic mice [2] = experiment: Airway hyperresponsiveness, combination of carvedilol and salbutamol vs carvedilol monotherapy; type: in vivo, Balb/cJ mice; conditions: 28 days treatment; highest dose of methacholine
Experimental: Mice (Balb/cJ) aged 6 weeks were housed under specific pathogen-free conditions and fed a chicken ovalbumin-free diet. Mice were systemically sensitized with ovalbumin adsorbed to aluminum hydroxide. Mice were treated as follows: CAR/SAL 28D=for 28 days mice (n=6-12) were administered carvedilol (2400 ppm in animal chow) and salbutamol (subcutaneous delivery of 0.5 mg/kg/day in an Alzet #2400 osmotic minipump); NTX S/C=mice (n=6-12) no drug treatment for 28 days; CTRL=mice (n=6-12) no drug treatment for 28 days, not subsequently challenged; CARHD 28D=for 28 days mice (n=6-12) were administered carvedilol only (2400 ppm in animal chow); CARHD 28D SAL AC=for 28 days mice (n=6-12) were administered carvedilol (2400 ppm in animal chow) and 15 minutes prior to measuring airway hyperresponsiveness, salbutamol was administered at a dose of […].
To measure airway hyperresponsiveness after 28 days, all mice except the CTRL (control) mice were challenged with ovalbumin and then all mice were anesthetized, tracheotomized, and connected to a Flexivent small animal ventilator to measure airway resistance (Raw) by the forced oscillation technique. To induce airway constriction, a solution containing 150 μg/mL of methacholine was infused using a syringe infusion pump. The methacholine infusion was started at 0.008 mL/min and its rate was doubled stepwise up to a maximum […]. […]

β2-adrenergic receptor [3] = type: binding, mice; conditions: 2 days of administration
Experimental: (§1) β2-adrenergic receptor numbers were measured in asthmatic mice as follows. […] Mice were sacrificed and lung membranes were isolated as follows. Frozen lung tissue was homogenized in an ice-cold buffer containing 0.32 M sucrose and 25 mM Tris (pH 7.4) using a polytron (Pro 200, Pro Scientific, Inc.). The homogenate was centrifuged at 1000×g for 10 min at 4° C. The resulting supernatant was centrifuged at 40,000×g for 20 min at 4° C. The pellet was suspended in an ice-cold 25 mM Tris-HCl buffer (pH 7.4) and centrifuged at 40,000×g for 20 min at 4° C. The final pellet was suspended in 200 μL of 25 mM Tris-HCl (pH 7.4); membrane protein concentration was determined by BCA protein assay kit. […] The incubation was done at 37° C. for 2 h and terminated by rapid vacuum filtration through glass fiber filters. The filters were washed three times with 250 μL of cold wash buffer (25 mM Tris-HCl, pH 7.4) and the radioactivity determined in a counter. […] Receptor densities are expressed as femtomoles of sites per milligram of protein. Bmax is determined by nonlinear regression of the saturation binding curves.

β2-adrenergic receptor [4] = biological target: β2-adrenergic receptor (Mus musculus, UniProt P18762); type: binding, mice
β2-adrenergic receptor (Mus musculus, UniProt P18762), sequence (P18762 whole entry): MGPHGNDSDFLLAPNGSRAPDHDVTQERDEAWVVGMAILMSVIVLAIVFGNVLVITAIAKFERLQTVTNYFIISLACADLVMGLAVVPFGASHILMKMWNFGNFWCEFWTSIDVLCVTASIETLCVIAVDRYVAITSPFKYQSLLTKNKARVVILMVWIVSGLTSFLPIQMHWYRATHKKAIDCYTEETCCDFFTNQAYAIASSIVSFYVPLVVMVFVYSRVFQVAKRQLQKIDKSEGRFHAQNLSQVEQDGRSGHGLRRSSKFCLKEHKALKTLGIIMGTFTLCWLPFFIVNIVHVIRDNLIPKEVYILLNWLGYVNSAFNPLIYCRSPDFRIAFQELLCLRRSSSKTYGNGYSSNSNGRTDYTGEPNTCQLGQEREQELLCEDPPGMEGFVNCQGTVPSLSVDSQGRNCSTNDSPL
Experimental: as §1

[5] = test system: tracheas from asthmatic mice; conditions: chronic treatment of asthmatic mice, excised tracheas; cited from earlier work
asthmatic mice [6] = experiment: BALF cell number and type (Example 11); type: in vivo; conditions: vs nontreated asthmatic mice
Source text: The same mice as described in Example 1 underwent bronchoalveolar lavage (BAL) to determine the total number and type of immune system cells in the lung. BAL Fluid (BALF) was irrigated and collected from the lungs of mice as previously described (Evans K L, Bond R A, Corry […]. Frequency dependence of respiratory system mechanics during induced constriction in a murine model of asthma. J Appl Physiol. 2003 January;94(1):245-52). […] The number of neutrophils was increased in nontreated asthmatic mice compared to mice that served as controls for chronic beta-blocker treatments. In comparison to their notable effects on airway responsiveness, the β-AR ligands tested had very little effect on BALF cellularity. […] FIG. 12 has 3 panels of cell number and type of cells from the bronchoalveolar lavage fluid of asthmatic mice treated acutely or chronically with beta adrenergic ligands. Cells were identified as eosinophils (black bars), macrophages (hatched bars), neutrophils (grey bars), and lymphocytes (white bars) by standard morphologic criteria. At least 200 cells were counted per cytospin preparation, and the absolute number of each cell type was calculated based on the volume of fluid recovered from the lavage. […] Data are expressed as mean ±SEM and are representative of 6-25 animals per group. #P<0.05 compared to NTX, *P<0.05 compared to control (ANOVA).

patients with CHF = conditions: cited from earlier work

## COc1ccccc1OCCNCC(O)COc1cccc2[nH]c3ccccc3c12 (stereo not shown) [carvedilol]
Asthmatic mice [1]; 15 minutes of administration
  Decreased Raw: no
Asthmatic mice [1]; 2 days of administration
  Decreased Raw: no
Asthmatic mice [1]; 28 days of administration
  Decreased Raw: yes
Asthmatic mice [1]; asthmatic mice, acute: single intravenous bolus 15 minutes before methacholine
  airway responsiveness to methacholine provocation (Raw): enhanced the airway responsiveness
Asthmatic mice [1]; asthmatic mice, chronic administration
  sensitivity of the responsiveness to methacholine: shifts the sensitivity of the responsiveness to methacholine to lower concentrations
Asthmatic mice [1]; asthmatic mice, chronic administration for 28 days
  airway responsiveness to methacholine provocation (Raw): does reduce airway hyperresponsiveness; also recorded: reduced the responsiveness of asthmatic mice to methacholine provocation
Asthmatic mice [1]; chronic administration, low and high doses in chow (FIGS. 8D-8G)
  protection from airway hyperresponsiveness: providing protection from airway hyperresponsiveness
Asthmatic mice [2]
  bronchoconstriction / airway hyperresponsiveness (Raw): higher bronchoconstriction than these treatments but less than the non-drug treated sensitized and challenged (NTX S/C) mice
β2-adrenergic receptor [3]
  Increased β2AR density: no
β2-adrenergic receptor [4]; 15 Minutes drug treatment, lung membranes of asthmatic mice, mean±SEM
  Bmax: 86.3 ± 19.42 femtomoles of sites per milligram of protein
β2-adrenergic receptor [4]; 28 Days drug treatment, lung membranes of asthmatic mice, mean±SEM
  βmax: 904.1 ± 43.46 femtomoles of sites per milligram of protein
β2-adrenergic receptor [4]; 15 minutes of administration
  Increased β2AR density: no
β2-adrenergic receptor [4]; 28 days of administration
  Increased β2AR density: showed an increase in receptor density at 28 days
β2-adrenergic receptor [4]; 28 days of administration, listed as Carvedilol
  Increased β2AR density: yes
β2-adrenergic receptor [4]; chronic administration
  increase of the level of β2-adrenergic receptors over the non-treated mice: over 10 fold
[5]
  effectiveness on tracheal contraction in response to methacholine (rank): followed by carvedilol
Asthmatic mice [6]; acute treatment (15 minutes)
  BALF cellularity: had no effects on BALF cellularity
Asthmatic mice [6]; chronic treatment (28 days)
  BALF cellularity: had no effects on BALF cellularity
Patients with CHF
  clinical outcome in congestive heart failure: significant mortality reduction
